Reference: patent publication US20130267484A1, “TREATMENT OF RHEUMATOID ARTHRITIS WITH MASITINIB” (AB SCIENCE, priority 2010, published 2013)
Where “and” joins values, the source holds several entries; their conditions need not be identical. Identical values can stand only once.

Tested on: DMARD-refractory active RA
Assay: Phase 2a trial of masitinib in DMARD-refractory active RA: efficacy (ACR, ACRn, CRP, DAS28)
Assay type: in vivo, Human
Parameters: ACRn Mean ± SD / ACRn Median: unit not given here
Excerpt: The main exclusion criteria were patients with: inadequate bone marrow function, defined as an absolute neutrophil count ≦2.5×10^9/litre, and platelets ≦100×10^9/litre; active current infection, history of infection requiring hospitalisation, history of recurrent infections, or treatment with antibiotics within 2 weeks of screening. Treatment wash-out periods observed prior to entry to the study were: a) DMARD use within 4 weeks; b) five half-lives, or wash-out in accordance for a specific drug, whichever is longer; c) any live (attenuated) vaccines taken within 4 weeks; d) use of more than one NSAID or its dosage change within 4 weeks; e) prednisone or equivalent corticosteroid dosage >10 mg/day or any dosage change within 4 weeks; and f) prednisone or equivalent corticosteroid dosage >20 mg administered via intra-articular injection, bolus intramuscular or intravenous treatment within 4 weeks. Other exclusion criteria included any previous use of recombinant interleukin-1 receptor antagonist (IL1-Ra) and patients who were pregnant or nursing.
Efficacy data are presented using descriptive statistics, contrasting initial dosage groups or according to previous DMARD failure. For comparison of groups according to initial dosage on a continuous variable, Student test (with Satterwhaite correction for unequal variance) or Wilcoxon test were used when normality was not rejected or rejected, respectively (normality determined via the Shapiro-Wilk test). For the same comparison on a qualitative variable, Chi-square or Fisher Exact test (if the Chi-square hypotheses were not filled) were used. The rate of patients achieving the various ACR response variables after 12 weeks of treatment (remission rate) are presented in terms of percentage and number of patients. Patients were assigned to either 3 or 6 mg/kg/day treatment groups based upon a randomisation schedule generated for packaging and labelling by the Biostatistics Section of AB Science. Individual treatment doses to be administered were supplied in sealed envelopes to be opened by the investigator at time of inclusion. Patients received the treatment from the investigator on an open basis.
Due to the relatively high patient drop-out rate of this study, analysis was conducted on two different datasets: one with an imputation of missing values according to the last observation carried forward (LOCF) methodology and the other in the absence of data imputation, i.e. the observed cases (OC). Analysis for efficacy was performed on a modified Intention-To-Treat (ITT) population and Per Protocol (PP) population. […] The PP population was defined as a subgroup of the ITT population that in addition had presented no major protocol deviations and had completed at least 28 days of treatment exposure.

[1] = W 60, extension phase, ITT population, n = 8
[2] = W 72, extension phase, ITT population, n = 7
[3] = W 72, extension phase, ITT population, n = 9
[4] = W 84, extension phase, ITT population, n = 4
[5] = W 84, extension phase, ITT population, n = 8
[6] = initial dosage 3 mg/kg/day (n = 22), ITT population
[7] = initial dosage 3 mg/kg/day (n = 22), ITT population, listed as Masitinib
[8] = initial dosage 6 mg/kg/day (n = 18), ITT population
[9] = week 12, ITT LOCF, All patients (n = 34)
[10] = week 12, ITT LOCF, All patients (n = 39)
[11] = week 12, ITT LOCF, Resistance to MTX (n = 28)
[12] = week 12, ITT LOCF, Resistance to MTX (n = 32)
[13] = week 12, ITT LOCF, Resistance to anti-TNFα (n = 18)
[14] = week 12, ITT LOCF, Resistance to anti-TNFα (n = 19)
[15] = week 12, PP OC, All patients (n = 24)
[16] = week 12, PP OC, All patients (n = 27)
[17] = week 12, PP OC, Resistance to MTX (n = 20)
[18] = week 12, PP OC, Resistance to MTX (n = 23)
[19] = week 12, PP OC, Resistance to anti-TNFα (n = 13)
[20] = week 12, PP OC, Resistance to anti-TNFα (n = 14)

In the case of `Cc1ccc(NC(=O)c2ccc(CN3CCN(C)CC3)cc2)cc1Nc1nc(-c2cccnc2)cs1` [masitinib, 4-(4-methylpiperazin-1-ylmethyl)-N-[4-methyl-3-(4-pyridin-3ylthiazol-2-ylamino)phenyl]benzamide], the “ACRn Median” value [1] is reported as 64.9, the “ACRn Min-Max” value [1] is reported as 10.0-93.3 and the “DAS28 <2.6, patients” value [2] is reported as 1 (14%). The “DAS28 Mean ± SD” value [2] was 3.5 ± 1.5, the “DAS28 Median” value [2] was 3.0 and the “DAS28 Min-Max” value [2] was 1.6-6.1. The “DAS28 ≦3.2, patients” value [2] was 4 (57%), the “ACR20, patients reaching level” value [3] was 6 (67%) and the “ACR50, patients reaching level” value [3] was 3 (33%). The “ACR70, patients reaching level” value [3] was 2 (22%), the “ACR90, patients reaching level” value [3] was 1 (11%) and the “ACRn Mean ± SD” value [3] was 35.6 ± 41.3. For the same compound, the “ACRn Median” value [3] was 39.7, the “ACRn Min-Max” value [3] was −27.8-97.4 and the “CRP 0% < Improvement ≦25%, patients” value [3] was 1 (11%). The “CRP 25% < Improvement ≦50%, patients” value [3] was 1 (11%), the “CRP Deterioration, patients” value [3] was 1 (11%) and the “CRP Improvement >50%, patients” value [3] was 6 (68%). The “CRP Stable, patients” value [3] was 0 (0%), the “DAS28 <2.6, patients” value [4] was 2 (50%) and the “DAS28 Mean ± SD” value [4] was 3.1 ± 1.6. The “DAS28 Median” value [4] was 2.5, the “DAS28 Min-Max” value [4] was 1.9-5.5 and the “DAS28 ≦3.2, patients” value [4] was 3 (75%). The “ACR20, patients reaching level” value [5] was 7 (88%), the “ACR50, patients reaching level” value [5] was 5 (63%) and the “ACR70, patients reaching level” value [5] was 2 (25%). The “ACR90, patients reaching level” value [5] was 1 (13%), the “ACRn Mean ± SD” value [5] was 50.9 ± 38.0 and the “ACRn Median” value [5] was 55.0. For the same compound, the “ACRn Min-Max” value [5] was −17.6-98.8, the “CRP 0% < Improvement ≦25%, patients” value [5] was 1 (13%) and the “CRP 25% < Improvement ≦50%, patients” value [5] was 1 (13%). For the same compound, the “CRP Deterioration, patients” value [5] was 1 (13%), the “CRP Improvement >50%, patients” value [5] was 5 (63%) and the “CRP Stable, patients” value [5] was 0 (0%). The “Share of patients achieving ACR20 who did so at the stated dosage at time of first response” value (dosage not given) was “approximately 65%”, the “Share of patients achieving ACR50 who did so at the stated dosage at time of first response” value (dosage not given) was about 73% and the “Patients achieving up to 90% improvement (ACR90)” value (extension phase, after 1 year of treatment (60 weeks)) was “two”. The “Duration over which observed improvement is maintained” value (extension phase, preliminary) was over 84 weeks, the “Time to first response ACR20, Mean ± SD” value [6] was 51.9 ± 24.5 days and the “Time to first response ACR20, Median” value [6] was 56 days. For the same compound, the “Time to first response ACR20, Min-Max” value [6] was 28.0 to 105.0 days, the “Time to first response ACR50, Mean ± SD” value [6] was 91.9 ± 59.5 days and the “Time to first response ACR50, Median” value [6] was 84 days. For the same compound, the “Time to first response ACR50, Min-Max” value [6] was 28.0 to 217.0 days, the “Time to first response ACR20, Median” value [7] was 56.0 days and the “Time to first response ACR50, Median” value [7] was 84.0 days. The “Time to first response ACR20, Mean ± SD” value [8] was 40.3 ± 19.0 days, the “Time to first response ACR20, Median” value [8] was 29 days and the “Time to first response ACR20, Min-Max” value [8] was 28.0 to 86.0 days. For the same compound, the “Time to first response ACR50, Mean ± SD” value [8] was 86.8 ± 61.1 days, the “Time to first response ACR50, Median” value [8] was 72.5 days and the “Time to first response ACR50, Min-Max” value [8] was 28.0 to 203.0 days. For the same compound, the “Time to first response ACR20, Median” value (initial dosage 6 mg/kg/day (n = 18), ITT population, listed as Masitinib) was 29.0 days, the “Patients achieving ACR20 and ΔCRP>50% response criteria” value (regardless of previous treatment (anti-TNFα or MTX failure)) was “approximately 50%” and the “Patients with significant reduction (>50%) in CRP levels” value (week 12) was “approximately 50%”. For the same compound, the “DAS28 Mean ± SD” value [9] was 4.8 ± 1.5, the “DAS28 Min-Max” value [9] was 0.5-7.0 and the “ΔDAS28 (change in DAS28 score from baseline)” value [9] was 1.7. The “ACRn Mean ± SD” value [10] was 23.0 and 23.0 ± 37.5, the “ACRn Median” value [10] was 25.7 and the “ACRn Min-Max” value [10] was −62.5-87.5. For the same compound, the “DAS28 Mean ± SD” value [11] was 4.8 ± 1.5, the “DAS28 Min-Max” value [11] was 0.5-7.0 and the “ΔDAS28 (change in DAS28 score from baseline)” value [11] was 1.8. The “ACRn Mean ± SD” value [12] was 24.1 ± 38.8, the “ACRn Median” value [12] was 32.7 and the “ACRn Min-Max” value [12] was −62.5-87.5. For the same compound, the “DAS28 Mean ± SD” value [13] was 5.2 ± 1.1, the “DAS28 Min-Max” value [13] was 3.3-7.0 and the “ΔDAS28 (change in DAS28 score from baseline)” value [13] was 1.7. The “ACRn Mean ± SD” value [14] was 18.7 ± 36.8, the “ACRn Median” value [14] was 20.6 and the “ACRn Min-Max” value [14] was −62.5-72.2. For the same compound, the “DAS28 Mean ± SD” value [15] was 4.6 ± 1.3, the “DAS28 Min-Max” value [15] was 0.5-7.0 and the “ΔDAS28 (change in DAS28 score from baseline)” value [15] was 2.0. The “ACRn Mean ± SD” value [16] was 31.6, the “ACRn Median” value [16] was 42.9 and the “ACRn Min-Max” value [16] was −40.0-87.5. The “DAS28 Mean ± SD” value [17] was 4.6 ± 1.4, the “DAS28 Min-Max” value [17] was 0.5-7.0 and the “ΔDAS28 (change in DAS28 score from baseline)” value [17] was 2.1. For the same compound, the “ACRn Mean ± SD” value [18] was 36.6 ± 31.6, the “ACRn Median” value [18] was 46.9 and the “ACRn Min-Max” value [18] was −40.0-87.5. The “DAS28 Mean ± SD” value [19] was 5.1 ± 1.2, the “DAS28 Min-Max” value [19] was 3.3-7.0 and the “ΔDAS28 (change in DAS28 score from baseline)” value [19] was 1.8. For the same compound, the “ACRn Mean ± SD” value [20] was 28.1 ± 32.1, the “ACRn Median” value [20] was 44.3 and the “ACRn Min-Max” value [20] was 40.0-72.2.
